pIC50: −log10 of the molar value.
Each compound was assayed against T1, Na^+ /H^+ exchanger of rabbit erythrocytes (Oryctolagus cuniculus, UniProt P23791) (assay: Inhibition of the Na^+ /H^+ exchanger of rabbit erythrocytes (amiloride-sensitive sodium influx, flame photometry)). Conditions: pH 7.4, 37° C., rabbits on 2% cholesterol diet.
T1 construct: determine the Na^+ influx into the erythrocytes via Na^+ /H^+ exchange; endogenous in cells; host or cells: erythrocytes in whole blood of cholesterol-fed New Zealand White rabbits
Type: cell-based, rabbit (New Zealand White)
Excerpt: Inhibition of the Na^+ /H^+ exchanger of rabbit erythrocytes
New Zealand White rabbits (Ivanovas) were given a standard diet containing 2% cholesterol for six weeks in order to activate Na^+ /H^+ exchange and thus to be able to use flame photometry to determine the Na^+ influx into the erythrocytes via Na^+ /H^+ exchange. The blood was removed from the aural arteries and rendered incoagulable by the addition of 25 IU of potassium heparin. One part of each sample was used for the duplicate determination of the hematocrit by centrifugation. Aliquots of in each case 100 μl were employed for measuring the initial content of Na^+ in the erythrocytes.
In order to determine the amiloride-sensitive sodium influx, 100 μl of each blood sample were in each case incubated, at pH 7.4 and 37° C., in 5 ml of a hyperosmolar salt/sucrose medium (mmol/l: 140 NaCl, 3 KCl, 150 sucrose, 0.1 ouabain, 20 tris(hydroxymethyl)aminomethane). The erythrocytes were then washed three times with ice cold MgCl2 /ouabain solution (mmol/l: 112 MgCl2, 0.1 ouabain) and hemolyzed in 2.0 ml of distilled water. The intracellular content of sodium was determined by flame photometry.
The nett influx of Na^+ was calculated from the difference between the initial sodium values and the sodium content of the erythrocytes following incubation. The amiloride-inhibitable sodium Influx was given by the difference in the sodium content of the erythrocytes following incubation with and without 3×10^-4 mol/l amiloride. The same procedure was also used in the case of the compounds according to the invention.

T1 sequence (P23791 whole entry): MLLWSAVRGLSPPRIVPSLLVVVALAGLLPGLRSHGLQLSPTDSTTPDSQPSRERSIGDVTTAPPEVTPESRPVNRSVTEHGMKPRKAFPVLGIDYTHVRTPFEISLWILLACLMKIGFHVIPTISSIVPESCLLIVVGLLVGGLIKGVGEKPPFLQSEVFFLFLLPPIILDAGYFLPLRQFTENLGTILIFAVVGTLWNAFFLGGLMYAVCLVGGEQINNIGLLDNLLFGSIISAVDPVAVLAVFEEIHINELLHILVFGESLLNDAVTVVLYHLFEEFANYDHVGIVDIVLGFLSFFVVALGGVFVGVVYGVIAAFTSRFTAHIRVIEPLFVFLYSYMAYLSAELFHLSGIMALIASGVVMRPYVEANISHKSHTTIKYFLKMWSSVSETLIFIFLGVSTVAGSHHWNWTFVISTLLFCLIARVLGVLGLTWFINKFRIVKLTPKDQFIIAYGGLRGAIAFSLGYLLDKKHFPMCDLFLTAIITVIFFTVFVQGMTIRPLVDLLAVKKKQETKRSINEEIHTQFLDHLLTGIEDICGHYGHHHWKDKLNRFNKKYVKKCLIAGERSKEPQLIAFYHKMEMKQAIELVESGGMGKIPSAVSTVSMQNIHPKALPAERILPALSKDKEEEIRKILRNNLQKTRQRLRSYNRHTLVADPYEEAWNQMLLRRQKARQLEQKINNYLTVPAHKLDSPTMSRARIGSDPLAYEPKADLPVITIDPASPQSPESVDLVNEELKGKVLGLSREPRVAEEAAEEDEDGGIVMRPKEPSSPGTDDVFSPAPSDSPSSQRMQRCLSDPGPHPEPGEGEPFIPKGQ

Compound | pIC50
Cn1c(C(=O)N=C(N)N)ccc1C(F)(C(F)(F)F)C(F)(F)F [Example 1, 5-Heptafluoroisopropyl-1-methylpyrrole-2-carboguanidide] | 6.52
Cn1c(C(=O)N=C(N)N)ccc1C(F)(F)C(F)(F)C(F)(F)F [Example 2, 5-Heptafluoro-n-propyl-1-methylpyrrole-2-carboguanidide] | 6.00
Cn1cccc1C(=O)N=C(N)N [Example 5, 1-Methylpyrrole-2-carboguanidide] | 5.30
Cc1ccc(C(=O)N=C(N)N)s1 [Example 7, 5Methylthiophene-2-carboguanidide] | 5.52

More lines, in order of rising pIC50, values ahead:

pIC50 | Compound
6.30 | CC(C)c1sc(C(=O)N=C(N)N)cc1S(C)(=O)=O [Example 6, 5-Isopropyl-4-methylsulfonylthiophene-2-carboguanidide]
6.30 | NC(N)=NC(=O)c1cc(Br)c(Br)s1 [Example 8, 4,5-Dibromothiophene-2-carboguanidide]
6.52 | Cn1c(C(=O)N=C(N)N)ccc1C(F)(F)C(F)(F)F [Example 3, 5-Pentafluoroethyl-1-methylpyrrole-2-carboguanidide]
6.70 | Cn1c(C(=O)N=C(N)N)ccc1C(F)(F)F [Example 4, 5-Trifluoromethyl-1-methylpyrrole-2-carboguanidide]

— patent publication US5698581A, “Substituted N-heteroaroylguanidines, a process for their preparation, their use as a medicament or diagnostic agent, and a medicament containing them” (Hoechst Aktiengesellschaft, priority 1994, dated 1997)
